Among the data in US20250215010A1, “DIAZABICYCLOOCTANE DERIVATIVES USEFUL AS MATRIX METALLOPROTEINASE INHIBITORS” (VASA THERAPEUTICS SPOLKA Z OGRANICZONA ODPOWIEDZIALNOSCIA, priority 2022, published 2025) are IC50 values, retold here.

As usually defined, the IC50 is the concentration that gives 50% inhibition.

Holding throughout (type): biochemical
One experiment addresses T1, MMP1 (Homo sapiens, UniProt P03956).
T1 sequence (P03956 100-269 limits assumed): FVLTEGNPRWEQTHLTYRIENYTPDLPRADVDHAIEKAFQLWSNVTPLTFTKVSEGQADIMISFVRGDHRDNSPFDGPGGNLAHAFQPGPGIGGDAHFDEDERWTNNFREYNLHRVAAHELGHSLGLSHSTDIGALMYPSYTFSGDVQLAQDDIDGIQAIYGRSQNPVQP
Kind of experiment: MMP-1 colorimetric inhibition assay (Enzo kit BML-AK404). On the procedure: (§1) The inhibitory activities of the compounds of the invention were assessed in 96-well microplate format using MMP1, MMP2, MMP9 and MMP13 colorimetric assay kits and TACE fluorometric assay kit from Enzo Life Sciences, Inc. The inhibitory effect of the compounds of the invention on ADAM10 activity were evaluated in 96-well microplate format using fluorometric assay from AnaSpec, Inc.
The MMP-1 Colorimetric Drug Discovery Kit (catalog #BML-AK404) is a complete assay system designed to screen inhibitors of matrix metalloproteinase-1 using a thiopeptide as a chromogenic substrate (Ac-PLG-[2-mercapto-4-methylpentanoyl]-LG-OC2H5). The MMP cleavage site peptide bond is replaced by a thioester bond in the thiopeptide. Hydrolysis of this bond by an MMP produces a sulfhydryl group, which reacts with DTNB [5,5′-dithiobis(2-nitrobenzoic acid), Ellman's reagent] to form 2-nitro-5-thiobenzoic acid, that can be detected spectrophotometrically.
(§2) The inhibitory activities of the compounds of the invention against MMP1, MMP2, MMP9 and MMP13 were tested according to the manufacturer's assay protocols and the absorbance at 415 nm was monitored using the Tecan Infinite® 200 Pro F Nano^+ microplate reader.
(§3) The normalized values were analyzed using GraphPadPrism 9 for Windows (GraphPad Software, San Diego, CA, USA) software by plotting inhibition curves and determining the IC50 values (in nM).

The target in the next experiment is ADAM17 (TACE) (Homo sapiens, UniProt P78536). Kind of experiment: TACE fluorometric inhibition assay (Enzo kit BML-AK310). On the procedure:
as §1
The TACE Fluorometric Drug Discovery Kit (catalog #BML-AK310) is a complete assay system designed to screen ADAM17 (TACE) inhibitors using a quenched fluorogenic peptide: Mca-PLAQAV-Dpa-RSSSR—NH2. Mca fluorescence is quenched by the Dpa group until cleavage by proteases separates the two moieties leading to an increase in Mca fluorescence.
The inhibitory activity of the compounds of the invention against TACE was tested according to the manufacturer's assay protocol and the fluorescence was monitored at excitation/emission wavelengths=320 nm/420 nm using Tecan Infinite® 200 Pro F Nano^+ microplate reader.
as §3

The target of a further experiment is T2, MMP13 (Homo sapiens, UniProt P45452).
T2 construct: purchased Enzo Life Sciences, Inc. BML-AK412
Kind of experiment: MMP-13 colorimetric inhibition assay (Enzo kit BML-AK412). On the procedure: as §1
The MMP-13 Colorimetric Drug Discovery Kit (catalog #BML-AK412) is a complete assay system designed to screen inhibitors of matrix metalloproteinase-13 using a thiopeptide as a chromogenic substrate (Ac-PLG-[2-mercapto-4-methylpentanoyl]-LG-OC2H5). The MMP cleavage site peptide bond is replaced by a thioester bond in the thiopeptide. Hydrolysis of this bond by an MMP produces a sulfhydryl group, which reacts with DTNB [5,5′-dithiobis(2-nitrobenzoic acid), Ellman's reagent] to form 2-nitro-5-thiobenzoic acid, that can be detected spectrophotometrically.
as §2, §3

A further experiment deals with MMP9 (Homo sapiens, UniProt P14780). Nature of the experiment: MMP-9 colorimetric inhibition assay (Enzo kit BML-AK410). On the procedure: as §1
Chain of MMP9 (P14780 94-707): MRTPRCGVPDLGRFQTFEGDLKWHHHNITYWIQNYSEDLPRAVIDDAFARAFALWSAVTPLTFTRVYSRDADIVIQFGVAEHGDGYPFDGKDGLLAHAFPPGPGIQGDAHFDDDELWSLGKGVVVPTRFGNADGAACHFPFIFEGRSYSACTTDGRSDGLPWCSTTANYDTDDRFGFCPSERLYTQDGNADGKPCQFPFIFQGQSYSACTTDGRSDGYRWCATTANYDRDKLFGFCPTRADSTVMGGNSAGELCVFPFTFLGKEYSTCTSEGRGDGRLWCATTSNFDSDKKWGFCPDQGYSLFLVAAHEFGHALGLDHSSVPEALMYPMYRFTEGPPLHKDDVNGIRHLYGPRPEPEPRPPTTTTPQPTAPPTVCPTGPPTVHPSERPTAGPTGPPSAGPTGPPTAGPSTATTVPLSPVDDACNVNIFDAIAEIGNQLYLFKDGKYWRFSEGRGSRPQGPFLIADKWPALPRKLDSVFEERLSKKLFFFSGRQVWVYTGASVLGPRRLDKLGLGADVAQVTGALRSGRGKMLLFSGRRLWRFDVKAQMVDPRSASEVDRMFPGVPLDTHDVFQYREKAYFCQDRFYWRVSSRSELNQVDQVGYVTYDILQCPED
The MMP-9 Colorimetric Drug Discovery Kit (catalog #BML-AK410) is a complete assay system designed to screen inhibitors of matrix metalloproteinase-9 using a thiopeptide as a chromogenic substrate (Ac-PLG-[2-mercapto-4-methylpentanoyl]-LG-OC2H5). The MMP cleavage site peptide bond is replaced by a thioester bond in the thiopeptide. Hydrolysis of this bond by an MMP produces a sulfhydryl group, which reacts with DTNB [5,5′-dithiobis(2-nitrobenzoic acid), Ellman's reagent] to form 2-nitro-5-thiobenzoic acid, that can be detected spectrophotometrically.
as §2, §3

In another experiment the target is T3, MMP2 (Homo sapiens, UniProt P08253).
T3 sequence (P08253 110-660): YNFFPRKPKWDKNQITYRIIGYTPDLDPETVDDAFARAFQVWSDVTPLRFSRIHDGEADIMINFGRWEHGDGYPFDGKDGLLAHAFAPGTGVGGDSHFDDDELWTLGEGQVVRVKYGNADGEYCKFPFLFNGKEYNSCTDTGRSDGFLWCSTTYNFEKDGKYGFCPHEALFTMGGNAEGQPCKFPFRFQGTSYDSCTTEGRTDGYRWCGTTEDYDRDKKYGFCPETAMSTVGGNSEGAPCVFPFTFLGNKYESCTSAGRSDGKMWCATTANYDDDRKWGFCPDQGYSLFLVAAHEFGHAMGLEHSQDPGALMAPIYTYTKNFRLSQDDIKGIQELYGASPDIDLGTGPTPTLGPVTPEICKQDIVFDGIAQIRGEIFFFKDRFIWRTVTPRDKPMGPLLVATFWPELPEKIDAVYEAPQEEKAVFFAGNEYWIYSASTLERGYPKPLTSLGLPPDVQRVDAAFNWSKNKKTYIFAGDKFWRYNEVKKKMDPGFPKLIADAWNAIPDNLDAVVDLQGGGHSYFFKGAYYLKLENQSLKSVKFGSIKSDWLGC
Kind of experiment: MMP-2 colorimetric inhibition assay (Enzo kit BML-AK408). On the procedure: as §1
The MMP-2 Colorimetric Drug Discovery Kit (catalog #BML-AK408) is a complete assay system designed to screen MMP-2 inhibitors using a thiopeptide as a chromogenic substrate (Ac-PLG-[2-mercapto-4-methylpentanoyl]-LG-OC2H5). The MMP cleavage site peptide bond is replaced by a thioester bond in the thiopeptide. Hydrolysis of this bond by an MMP produces a sulfhydryl group, which reacts with DTNB [5,5′-dithiobis(2-nitrobenzoic acid), Ellman's reagent] to form 2-nitro-5-thiobenzoic acid, that can be detected spectrophotometrically.
as §2, §3

The mark [1] stands for this setting: thiopeptide substrate, absorbance 415 nm, read-out: MMP 1 IC50 class.
Setting [2] is: quenched fluorogenic peptide, ex/em 320/420 nm, read-out: TACE IC50 class.
Setting [3] is: thiopeptide substrate, absorbance 415 nm, read-out: MMP 13 IC50 class.
Where [4] appears, read: thiopeptide substrate, absorbance 415 nm, read-out: MMP 9 IC50 class.
Setting [5] is: thiopeptide substrate, absorbance 415 nm, read-out: MMP 2 IC50 class.

Molecules are shown by their SMILES. Like-named read-outs stand apart in the source and are kept apart here. A value given as a limit tells only on which side of the number the result lay.

Chain of ADAM17 (TACE) (P78536 215-477 limits assumed): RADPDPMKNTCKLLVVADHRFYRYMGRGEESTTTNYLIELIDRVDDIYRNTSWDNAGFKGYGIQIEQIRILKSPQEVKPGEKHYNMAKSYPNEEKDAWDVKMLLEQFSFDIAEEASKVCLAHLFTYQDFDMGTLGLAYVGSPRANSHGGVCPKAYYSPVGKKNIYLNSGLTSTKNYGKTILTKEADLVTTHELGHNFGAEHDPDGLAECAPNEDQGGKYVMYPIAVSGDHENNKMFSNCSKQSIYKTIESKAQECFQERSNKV

For `COCCOC(=O)N1[C@@H]2CC[C@H]1[C@H](C(=O)NO)N(S(=O)(=O)c1ccc(OC3CCC(OC)CC3)nc1)C2` (stereo partly drawn) [Example 11, 2-methoxyethyl (1S,2R,5R)-2-(hydroxycarbamoyl)-3-((6-((4-methoxy-cyclohexyl)oxy)-pyridin-3-yl)-sulfonyl)-3,8-diaza-bicyclo[3.2.1]octane-8-carboxylate], the IC50 was 1000 to 10000 nM at MMP1; 1000 to 10000 nM on ADAM17 (TACE); 50 to 1000 nM at MMP13; less than 50 nM against MMP9; less than 50 nM against MMP2.

Regarding `CN(C)C(=O)CN1[C@@H]2CC[C@H]1[C@H](C(=O)NO)N(S(=O)(=O)c1ccc(Oc3ccc(F)cc3)nc1)C2` [Example 51, (1S,2R,5R)-8-(2-(dimethylamino)-2-oxoethyl)-3-((6-(4-fluorophenoxy)pyridin-3-yl)sulfonyl)-N-hydroxy-3,8-diazabicyclo[3.2.1]octane-2-carboxamide], the IC50 at MMP1 (setting [1]) is 1000 to 10000 nM; on ADAM17 (TACE) (setting [2]), more than 10000 nM; at MMP13 (setting [3]), less than 50 nM; at MMP9 (setting [4]), 50 to 1000 nM; at MMP2 (setting [5]), less than 50 nM.

As to `COCCOC(=O)N1[C@@H]2CC[C@H]1[C@H](C(=O)NO)N(S(=O)(=O)c1cnc(Oc3ccc(F)cc3)c(F)c1)C2` [Example 6, 2-methoxyethyl (1S,2R,5R)-3-((5-fluoro-6-(4-fluoro-phenoxy)pyridin-3-yl)sulfonyl)-2-(hydroxycarbamoyl)-3,8-diazabicyclo[3.2.1]-octane-8-carboxylate], the IC50 at MMP1 (setting [1]) was 1000 to 10000 nM; at ADAM17 (TACE) (setting [2]), 1000 to 10000 nM; at MMP13 (setting [3]), less than 50 nM; at MMP9 (setting [4]) it was less than 50 nM; on MMP2 (setting [5]) it was less than 50 nM.

With `COCCOC(=O)N1[C@@H]2CC[C@H]1[C@H](C(=O)NO)N(S(=O)(=O)N1CCN(C(=O)c3ccc(Cl)cc3)CC1)C2` [Example 78, 2-methoxyethyl (1S,2R,5R)-3-((4-(4-chlorobenzoyl)piperazin-1-yl)sulfonyl)-2-(hydroxycarbamoyl)-3,8-diazabicyclo[3.2.1]octane-8-carboxylate], the IC50 was more than 10000 nM on MMP1 (setting [1]); 1000 to 10000 nM on ADAM17 (TACE) (setting [2]); 1000 to 10000 nM on MMP13 (setting [3]); 1000 to 10000 nM at MMP9 (setting [4]); 1000 to 10000 nM on MMP2 (setting [5]).

`COCCOC(=O)N1[C@@H]2CC[C@H]1[C@H](C(=O)NO)N(S(=O)(=O)c1ccc(Oc3cnn(C(C)C)c3)nc1)C2` [Example 37, 2-methoxyethyl (1S,2R,5R)-2-(hydroxycarbamoyl)-3-((6-((1-isopropyl-1H-pyrazol-4-yl)-oxy)pyridin-3-yl)-sulfonyl)-3,8-diazabicyclo-[3.2.1]octane-8-carboxylate]: the IC50 fell in the range of 1000 to 10000 nM at MMP1 (setting [1]); 50 to 1000 nM at ADAM17 (TACE) (setting [2]); 50 to 1000 nM on MMP13 (setting [3]); 50 to 1000 nM at MMP9 (setting [4]); 50 to 1000 nM at MMP2 (setting [5]).

Take `COCCOC(=O)N1[C@@H]2CC[C@H]1[C@H](C(=O)NO)N(S(=O)(=O)N1CCC(Oc3ccnc(C(F)(F)F)c3)CC1)C2` [Example 49, 2-methoxyethyl (1S,2R,5R)-2-(hydroxy-carbamoyl)-3-((4-((2-(trifluoro-methyl)pyridin-4-yl)oxy)-piperidin-1-yl)-sulfonyl)-3,8-diazabicyclo-[3.2.1]octane-8-carboxylate]: the IC50 on MMP1 (setting [1]) was more than 10000 nM; at ADAM17 (TACE) (setting [2]), 1000 to 10000 nM; on MMP13 (setting [3]), 50 to 1000 nM; at MMP9 (setting [4]), 50 to 1000 nM; on MMP2 (setting [5]), 50 to 1000 nM.

For `COCCOC(=O)N1[C@@H]2CC[C@H]1[C@H](C(=O)NO)N(S(=O)(=O)c1ccc(Oc3nc4ccc(F)cc4o3)c(F)c1)C2` [Example 82, 2-methoxyethyl (1S,2R,5R)-3-((3-fluoro-4-((6-fluoro-benzo[d]oxazol-2-yl)oxy)phenyl)-sulfonyl)-2-(hydroxycarbamoyl)-3,8-diazabicyclo-[3.2.1]octane-8-carboxylate], the concentration for half-maximal inhibition (IC50) on MMP1 (setting [1]) is more than 10000 nM; on ADAM17 (TACE) (setting [2]), 50 to 1000 nM; at MMP13 (setting [3]), 1000 to 10000 nM; at MMP9 (setting [4]), 1000 to 10000 nM; at MMP2 (setting [5]), 1000 to 10000 nM.

In the case of `CCN1CCC(Oc2ccc(S(=O)(=O)N3C[C@H]4CC[C@@H]([C@@H]3C(=O)NO)N4C(=O)OCCOC)cn2)CC1` [Example 74, 2-methoxyethyl (1S,2R,5R)-3-((6-((1-ethylpiperidin-4-yl)oxy)pyridin-3-yl)sulfonyl)-2-(hydroxycarbamoyl)-3,8-diazabicyclo[3.2.1]octane-8-carboxylate], the IC50 was more than 10000 nM on MMP1 (setting [1]); more than 10000 nM at ADAM17 (TACE) (setting [2]); more than 10000 nM on MMP13 (setting [3]); 1000 to 10000 nM on MMP9 (setting [4]); more than 10000 nM at MMP2 (setting [5]).

`COCCOC(=O)N1[C@@H]2CC[C@H]1[C@H](C(=O)NO)N(S(=O)(=O)N1CCC(Oc3ccc(Cl)cc3)C1)C2` (stereo partly drawn) [Example 46, 2-methoxyethyl (1S,2R,5R)-3-((3-(4-chloro-phenoxy)-pyrrolidin-1-yl)-sulfonyl)-2-(hydroxy-carbamoyl)-3,8-diazabicyclo-[3.2.1]octane-8-carboxylate]: the IC50 against MMP1 is more than 10000 nM; at ADAM17 (TACE), 50 to 1000 nM; against MMP13 it was 50 to 1000 nM; at MMP9, 50 to 1000 nM; at MMP2, 50 to 1000 nM.

On to `CC(C)Oc1ccc(Oc2ccc(S(=O)(=O)N3C[C@H]4CC[C@@H]([C@@H]3C(=O)NO)N4C(=O)C(C)(C)C)cn2)cc1` [Example 61, (1S,2R,5R)-N-hydroxy-3-((6-(4-isopropoxyphenoxy)-pyridin-3-yl)-sulfonyl)-8-pivaloyl-3,8-diazabicyclo-[3.2.1]octane-2-carboxamide], for which the IC50 at MMP1 (setting [1]) was 1000 to 10000 nM; on ADAM17 (TACE) (setting [2]), more than 10000 nM; on MMP13 (setting [3]), less than 50 nM; on MMP9 (setting [4]), 50 to 1000 nM; on MMP2 (setting [5]), less than 50 nM.

In the case of `CC(C)Oc1ccc(Oc2ccc(S(=O)(=O)N3C[C@H]4CC[C@@H]([C@@H]3C(=O)NO)N4C(=O)C(C)C)cn2)cc1` [Example 60, (1S,2R,5R)-N-hydroxy-8-isobutyry1-3-((6-(4-isopropoxy-phenoxy)pyridin-3-yl)sulfonyl)-3,8-diazabicyclo-[3.2.1]octane-2-carboxamide], the IC50 was 1000 to 10000 nM at MMP1 (setting [1]); more than 10000 nM on ADAM17 (TACE) (setting [2]); less than 50 nM at MMP13 (setting [3]); less than 50 nM on MMP9 (setting [4]); less than 50 nM on MMP2 (setting [5]).
